Data published in patent publication US4945162A, “Novel radioactive propyl 2-iodospiroperidol and processes for the preparation thereof” (Sumitomo Chemical Company, Limited, priority 1986, dated 1990).

Target: T1, Dopamine Receptors (Rat Striatal Membranes) (Rattus norvegicus, UniProt P61169)
T1 construct: For ^3 H-SP to Rat Striatal Membranes; from tissue; host or cells: rat striatum (membranes)
Assay: Inhibition of specific ^3 H-SP binding (dopamine receptor binding affinity) to rat striatal membranes
Conditions: for Ki / IC50: 23° C., 30 minutes, ketanserine present; for IC50: nonspecific binding with (+)butaclamol, triplicate; for Relative Potency: relative to 2-ISP = 100
Description: PISP, 2-ISP and MISP were screened as for the dopamine receptor binding affinity according to the method reported by Hamblin [Biochem. Pharmacol. 33, 877-887 (1984)]. An aliquot of striatal membrane preparations was incubated at 23° C. for 30 minutes with each of the unlabeled competing drugs (PISP, 2-ISP and MISP) in different concentration, ketanserine and ^3 H-spiroperidol (hereinafter referred to as ^3 H-SP). The incubation was terminated by adding ice-cold TEAN buffer followed by a rapid filtration through a Whatman GF/B filter. The bound ^3 H-SP retained on the filter was extracted with ACS II (Amersham) and counted. All incubations were done in triplicate. Nonspecific binding was determined in tubes containing (+)butaclamol. Specific binding was calculated by subtracting the nonspecific binding from the total binding. IC50 values, the concentrations of the tested compounds that cause 50% inhibition of the specific ^3 H-SP binding, were assessed using from six to eight samples at different concentrations, in triplicate.

T1 sequence (P61169 whole entry): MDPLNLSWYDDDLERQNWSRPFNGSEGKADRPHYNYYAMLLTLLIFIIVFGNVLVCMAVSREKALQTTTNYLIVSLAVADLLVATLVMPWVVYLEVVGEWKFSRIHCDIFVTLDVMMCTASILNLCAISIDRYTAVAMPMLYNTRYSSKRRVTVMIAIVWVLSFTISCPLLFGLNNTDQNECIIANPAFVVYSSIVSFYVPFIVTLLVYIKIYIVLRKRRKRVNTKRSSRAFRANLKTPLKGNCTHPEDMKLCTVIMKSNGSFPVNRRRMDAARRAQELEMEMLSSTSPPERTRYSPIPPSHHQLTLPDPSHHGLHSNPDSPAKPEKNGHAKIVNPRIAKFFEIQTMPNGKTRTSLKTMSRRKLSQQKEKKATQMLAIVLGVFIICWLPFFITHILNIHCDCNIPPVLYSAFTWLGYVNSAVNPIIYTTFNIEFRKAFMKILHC

Question: CN1CN(c2ccccc2)C2(CCN(CCCC(=O)c3ccc(F)cc3I)CC2)C1=O [MISP, methyl 2-iodospiroperidol] was tested. Which Ki did it give?
Answer: The Ki was 5 nM.

Question: And the IC50?
Answer: Its IC50 is 55 nM.

Question: And the “Relative Potency” value?
Answer: The value was 20.

Question: CCCN1CN(c2ccccc2)C2(CCN(CCCC(=O)c3ccc(F)cc3I)CC2)C1=O [PISP, 8-[4-(4-fluoro-2-iodophenyl)-4-oxobutyl]-3-propyl-1-phenyl-1,3,8-triazaspiro[4.5]decan-4-one] was tested. Which Ki did it give?
Answer: The Ki was 0.2 nM.

Question: And the IC50?
Answer: The IC50 was 2.5 nM.

Question: What about the “Relative Potency” value of the same molecule?
Answer: Its value is 500.

Question: For O=C(CCCN1CCC2(CC1)C(=O)NCN2c1ccccc1)c1ccc(F)cc1I [2-ISP, 2-iodospiroperidol], which Ki is on record?
Answer: Its Ki is 1 nM.

Question: What about the IC50 of the same molecule?
Answer: Its IC50 is 11 nM.

Question: And the “Relative Potency” value?
Answer: Its value is 100.
